In article PMC5766975, “Production of eicosapentaenoic acid by application of a delta-6 desaturase with the highest ALA catalytic activity in algae” (Microbial Cell Factories, 2018):
Where two headings read alike, the source gives them in different places.

Experiments:
TpFADS6 [1] = biological target: T1, TpFADS6 (Thalassiosira pseudonana, UniProt Q4G2T1); assay: fatty acid composition of substrate-fed yeast transformants by GC (conversion to GLA); format: cell-based; parameters: gene desI; full-length, synthetic codon-optimised gene, 1455-bp fragment; expressed from pYES2/NT C (vector-encoded tag) in Saccharomyces cerevisiae INVSc1; conditions: single substrate fed to Saccharomyces cerevisiae INVSc1 expressing the desaturase; delta-6 desaturation; free acid fed
T1 sequence (Q4G2T1 entry or part of it): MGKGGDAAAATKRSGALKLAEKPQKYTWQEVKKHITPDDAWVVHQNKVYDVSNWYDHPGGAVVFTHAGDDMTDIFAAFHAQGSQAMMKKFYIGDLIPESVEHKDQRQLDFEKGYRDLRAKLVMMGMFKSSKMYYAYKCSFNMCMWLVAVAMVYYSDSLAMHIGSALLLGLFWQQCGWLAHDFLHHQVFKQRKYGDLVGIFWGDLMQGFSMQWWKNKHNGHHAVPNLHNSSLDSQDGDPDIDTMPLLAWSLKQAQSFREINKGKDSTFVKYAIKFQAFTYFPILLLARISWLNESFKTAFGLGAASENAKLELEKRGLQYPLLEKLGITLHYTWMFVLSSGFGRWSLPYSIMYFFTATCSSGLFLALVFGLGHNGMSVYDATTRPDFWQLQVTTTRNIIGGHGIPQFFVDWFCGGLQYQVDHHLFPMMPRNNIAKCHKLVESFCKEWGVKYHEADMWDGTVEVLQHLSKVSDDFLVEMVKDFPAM

TpFADS6 [2] = biological target: T1, TpFADS6; parameters: gene desI; conditions: single substrate fed to Saccharomyces cerevisiae INVSc1 expressing the desaturase; delta-6 desaturation; free acid fed

SMILES	fatty acid composition of substrate-fed yeast transformants by GC (conversion to) (TpFADS6 [1])	fatty acid composition of substrate-fed yeast transformants by GC (conversion to) (TpFADS6 [2])
CCCCC/C=C\C/C=C\CCCCCCCC(=O)O [LA, linoleic acid]	both substrates were catalyzed by TpFADS6	
CC/C=C\C/C=C\C/C=C\CCCCCCCC(=O)O [ALA, α-linolenic acid]		both substrates were catalyzed by TpFADS6
